Columns and labels:
Assay in all cases: biochemical
Design in all cases: species or system HEK293/K-562/placenta mixed human extract; Kinobeads chemoproteomic competition binding, quantified by TMT LC-MS/MS, dose response up to 20 uM
[1] = target: NUAK1 (Homo sapiens, UniProt O60285)
[2] = target: PRKDC (Homo sapiens, UniProt P78527)
[3] = target: MAPK3 (Homo sapiens, UniProt P27361)
[4] = target: NRK (Homo sapiens, UniProt Q7Z2Y5)
[5] = target: CSNK2A2 (Homo sapiens, UniProt P19784)
[6] = target: TLK2 (Homo sapiens, UniProt Q86UE8)
[7] = target: SERPINB2 (Homo sapiens, UniProt P05120)
[8] = target: WEE1 (Homo sapiens, UniProt P30291)
WEE1, sequence (P30291 whole entry): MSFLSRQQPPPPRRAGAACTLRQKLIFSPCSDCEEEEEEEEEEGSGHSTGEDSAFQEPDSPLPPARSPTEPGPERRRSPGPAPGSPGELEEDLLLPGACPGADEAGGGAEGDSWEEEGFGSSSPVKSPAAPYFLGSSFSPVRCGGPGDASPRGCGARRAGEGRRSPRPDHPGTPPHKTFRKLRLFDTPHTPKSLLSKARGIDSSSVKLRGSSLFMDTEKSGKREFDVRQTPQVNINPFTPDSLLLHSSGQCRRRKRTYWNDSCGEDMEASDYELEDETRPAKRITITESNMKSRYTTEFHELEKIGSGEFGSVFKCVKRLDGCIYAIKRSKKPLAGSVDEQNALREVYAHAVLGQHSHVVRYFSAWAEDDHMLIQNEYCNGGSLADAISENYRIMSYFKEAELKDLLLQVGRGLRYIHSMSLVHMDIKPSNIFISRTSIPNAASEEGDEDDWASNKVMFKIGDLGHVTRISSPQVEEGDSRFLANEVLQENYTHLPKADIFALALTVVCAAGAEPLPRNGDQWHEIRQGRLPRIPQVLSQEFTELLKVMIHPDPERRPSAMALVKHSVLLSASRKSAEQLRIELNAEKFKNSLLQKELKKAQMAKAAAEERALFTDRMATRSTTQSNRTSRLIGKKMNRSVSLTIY

[9] = target: CDC42BPA (Homo sapiens, UniProt Q5VT25)
[10] = target: TESK1 (Homo sapiens, UniProt Q15569)
[11] = target: ARAF (Homo sapiens, UniProt P10398)
[12] = target: NLK (Homo sapiens, UniProt Q9UBE8)
[13] = target: MAP4K4 (Homo sapiens, UniProt O95819)
[14] = target: CAMK2B (Homo sapiens, UniProt Q13554)
[15] = target: STK35 (Homo sapiens, UniProt Q8TDR2)
[16] = target: PRKCA (Homo sapiens, UniProt P17252)
[17] = target: MAP3K15 (Homo sapiens, UniProt Q6ZN16)
[18] = target: PDPK1 (Homo sapiens, UniProt O15530)
PDPK1, sequence (O15530 whole entry): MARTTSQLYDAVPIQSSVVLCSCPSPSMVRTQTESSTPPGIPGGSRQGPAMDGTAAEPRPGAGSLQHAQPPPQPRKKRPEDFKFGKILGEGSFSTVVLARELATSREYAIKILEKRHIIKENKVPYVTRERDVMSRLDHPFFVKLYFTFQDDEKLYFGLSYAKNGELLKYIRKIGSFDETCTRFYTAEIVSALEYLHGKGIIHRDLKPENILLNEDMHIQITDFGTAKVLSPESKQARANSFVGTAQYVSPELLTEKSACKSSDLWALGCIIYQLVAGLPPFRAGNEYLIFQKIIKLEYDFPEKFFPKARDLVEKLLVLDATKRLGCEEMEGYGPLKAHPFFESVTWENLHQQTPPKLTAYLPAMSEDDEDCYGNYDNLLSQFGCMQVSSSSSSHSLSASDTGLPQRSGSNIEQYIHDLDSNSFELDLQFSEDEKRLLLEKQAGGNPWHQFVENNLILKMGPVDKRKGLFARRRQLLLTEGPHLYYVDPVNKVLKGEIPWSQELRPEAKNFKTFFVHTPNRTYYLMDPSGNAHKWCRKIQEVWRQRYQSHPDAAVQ

[19] = target: TNIK (Homo sapiens, UniProt Q9UKE5)
TNIK, sequence (Q9UKE5 whole entry): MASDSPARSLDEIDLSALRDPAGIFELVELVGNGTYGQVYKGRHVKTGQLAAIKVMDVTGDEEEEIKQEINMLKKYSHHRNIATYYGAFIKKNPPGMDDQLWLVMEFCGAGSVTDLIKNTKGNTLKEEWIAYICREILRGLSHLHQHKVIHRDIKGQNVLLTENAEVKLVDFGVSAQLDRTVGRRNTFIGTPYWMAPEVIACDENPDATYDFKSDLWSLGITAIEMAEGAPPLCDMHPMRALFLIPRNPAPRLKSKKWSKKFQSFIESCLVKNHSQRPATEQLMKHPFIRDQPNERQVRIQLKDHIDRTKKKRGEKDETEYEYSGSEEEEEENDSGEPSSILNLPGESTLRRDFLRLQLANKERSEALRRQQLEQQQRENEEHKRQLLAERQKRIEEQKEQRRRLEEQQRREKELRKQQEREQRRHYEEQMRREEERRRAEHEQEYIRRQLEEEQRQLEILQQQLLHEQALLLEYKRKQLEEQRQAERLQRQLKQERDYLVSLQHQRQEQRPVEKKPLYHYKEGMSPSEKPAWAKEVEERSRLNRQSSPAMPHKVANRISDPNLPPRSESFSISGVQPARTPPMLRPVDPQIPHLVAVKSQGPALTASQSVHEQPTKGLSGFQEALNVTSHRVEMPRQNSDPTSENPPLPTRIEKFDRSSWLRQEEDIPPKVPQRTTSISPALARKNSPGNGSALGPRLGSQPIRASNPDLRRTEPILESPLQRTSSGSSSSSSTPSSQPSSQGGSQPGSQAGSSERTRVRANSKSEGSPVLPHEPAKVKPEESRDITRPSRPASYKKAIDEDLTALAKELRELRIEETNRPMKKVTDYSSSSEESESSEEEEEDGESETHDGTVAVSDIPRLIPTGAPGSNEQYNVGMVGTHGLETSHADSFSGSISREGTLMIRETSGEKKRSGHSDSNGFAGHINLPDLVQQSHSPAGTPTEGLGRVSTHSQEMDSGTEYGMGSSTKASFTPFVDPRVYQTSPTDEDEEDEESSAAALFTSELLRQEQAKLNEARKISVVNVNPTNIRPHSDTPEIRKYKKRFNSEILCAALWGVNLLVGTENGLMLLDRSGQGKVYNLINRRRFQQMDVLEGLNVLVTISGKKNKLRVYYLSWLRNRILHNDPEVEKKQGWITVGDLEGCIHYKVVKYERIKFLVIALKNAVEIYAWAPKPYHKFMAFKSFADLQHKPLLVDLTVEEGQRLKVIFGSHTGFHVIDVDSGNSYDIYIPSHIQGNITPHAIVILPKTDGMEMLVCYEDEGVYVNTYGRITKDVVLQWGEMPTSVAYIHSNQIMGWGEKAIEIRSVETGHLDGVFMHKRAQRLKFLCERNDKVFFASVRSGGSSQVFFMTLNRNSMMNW

[20] = target: PAK6 (Homo sapiens, UniProt Q9NQU5)
[21] = target: CSNK1E (Homo sapiens, UniProt P49674)
CSNK1E, sequence (P49674 whole entry): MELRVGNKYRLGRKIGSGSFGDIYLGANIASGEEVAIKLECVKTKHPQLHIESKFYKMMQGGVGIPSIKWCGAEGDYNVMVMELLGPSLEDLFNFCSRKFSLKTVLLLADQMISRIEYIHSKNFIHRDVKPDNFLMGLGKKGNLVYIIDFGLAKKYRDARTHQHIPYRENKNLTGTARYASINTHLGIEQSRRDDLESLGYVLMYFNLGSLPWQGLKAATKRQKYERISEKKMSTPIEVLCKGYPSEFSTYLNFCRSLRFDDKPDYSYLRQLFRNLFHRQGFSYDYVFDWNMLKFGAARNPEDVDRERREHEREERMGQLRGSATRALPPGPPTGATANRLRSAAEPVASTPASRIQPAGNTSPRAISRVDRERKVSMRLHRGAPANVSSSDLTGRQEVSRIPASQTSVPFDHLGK

NRK, sequence (Q7Z2Y5 whole entry): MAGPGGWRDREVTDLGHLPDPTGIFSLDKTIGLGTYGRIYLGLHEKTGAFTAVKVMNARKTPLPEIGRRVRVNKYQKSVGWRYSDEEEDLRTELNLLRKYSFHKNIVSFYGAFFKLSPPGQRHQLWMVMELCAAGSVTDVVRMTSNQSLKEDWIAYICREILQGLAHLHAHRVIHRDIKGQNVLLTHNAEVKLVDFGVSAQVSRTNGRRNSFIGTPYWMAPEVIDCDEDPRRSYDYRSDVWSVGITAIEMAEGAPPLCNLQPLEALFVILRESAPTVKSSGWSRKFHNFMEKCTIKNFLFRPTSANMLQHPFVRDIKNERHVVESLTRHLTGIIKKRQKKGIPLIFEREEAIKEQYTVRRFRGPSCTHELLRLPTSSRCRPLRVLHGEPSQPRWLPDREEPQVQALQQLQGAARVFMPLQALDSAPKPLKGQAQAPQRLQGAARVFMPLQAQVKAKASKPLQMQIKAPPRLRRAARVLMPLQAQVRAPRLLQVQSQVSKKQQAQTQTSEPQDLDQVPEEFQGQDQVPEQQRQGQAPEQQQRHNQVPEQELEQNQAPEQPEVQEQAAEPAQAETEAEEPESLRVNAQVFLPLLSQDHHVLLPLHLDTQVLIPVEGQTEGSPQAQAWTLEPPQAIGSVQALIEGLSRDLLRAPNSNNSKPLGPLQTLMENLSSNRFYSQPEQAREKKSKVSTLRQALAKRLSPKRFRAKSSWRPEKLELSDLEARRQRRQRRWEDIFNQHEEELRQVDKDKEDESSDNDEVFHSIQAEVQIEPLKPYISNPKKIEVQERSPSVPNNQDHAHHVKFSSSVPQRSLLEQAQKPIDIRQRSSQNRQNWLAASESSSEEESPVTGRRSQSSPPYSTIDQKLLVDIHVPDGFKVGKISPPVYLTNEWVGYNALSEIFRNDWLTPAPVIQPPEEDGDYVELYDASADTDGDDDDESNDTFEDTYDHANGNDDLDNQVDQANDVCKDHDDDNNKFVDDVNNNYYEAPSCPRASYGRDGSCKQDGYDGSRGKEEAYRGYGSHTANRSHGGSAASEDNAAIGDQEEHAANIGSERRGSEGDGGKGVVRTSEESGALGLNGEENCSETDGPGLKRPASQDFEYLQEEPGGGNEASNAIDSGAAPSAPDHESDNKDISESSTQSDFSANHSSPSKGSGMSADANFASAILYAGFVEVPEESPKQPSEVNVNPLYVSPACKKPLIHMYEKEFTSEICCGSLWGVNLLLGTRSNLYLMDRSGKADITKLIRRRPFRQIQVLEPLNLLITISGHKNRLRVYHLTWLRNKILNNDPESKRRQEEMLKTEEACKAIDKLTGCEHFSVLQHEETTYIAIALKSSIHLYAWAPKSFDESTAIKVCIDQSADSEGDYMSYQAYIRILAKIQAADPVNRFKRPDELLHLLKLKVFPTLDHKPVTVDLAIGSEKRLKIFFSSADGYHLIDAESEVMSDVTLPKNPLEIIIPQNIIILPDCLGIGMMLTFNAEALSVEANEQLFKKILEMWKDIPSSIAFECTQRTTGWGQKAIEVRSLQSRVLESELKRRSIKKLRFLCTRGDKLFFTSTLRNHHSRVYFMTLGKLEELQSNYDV
MAPK3, sequence (P27361 whole entry): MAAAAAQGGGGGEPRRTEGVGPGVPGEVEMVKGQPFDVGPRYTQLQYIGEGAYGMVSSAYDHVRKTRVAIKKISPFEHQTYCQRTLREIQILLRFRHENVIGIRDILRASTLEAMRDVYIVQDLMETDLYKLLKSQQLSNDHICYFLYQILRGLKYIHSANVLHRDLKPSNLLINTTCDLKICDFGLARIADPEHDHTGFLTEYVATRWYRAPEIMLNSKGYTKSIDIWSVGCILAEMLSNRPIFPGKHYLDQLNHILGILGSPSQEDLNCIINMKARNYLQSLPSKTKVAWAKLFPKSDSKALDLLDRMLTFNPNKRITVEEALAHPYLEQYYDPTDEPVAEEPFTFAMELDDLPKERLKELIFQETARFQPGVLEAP

- IC50 [1]: ≥ 20 µM
- IC50 [2]: ≥ 20 µM
- IC50 [3]: ≥ 20 µM
- IC50 [4]: ≥ 20 µM
- IC50 [5]: ≥ 20 µM
- IC50 [6]: ≥ 20 µM
- IC50 [7]: ≥ 20 µM
- IC50 [8]: ≥ 20 µM
- IC50 [9]: ≥ 20 µM
- IC50 [10]: ≥ 20 µM
- IC50 [11]: ≥ 20 µM
- IC50 [12]: 3.4 µM
- IC50 [13]: ≥ 20 µM
- IC50 [14]: ≥ 20 µM
- IC50 [15]: ≥ 20 µM
- IC50 [16]: ≥ 20 µM
- IC50 [17]: ≥ 20 µM
- IC50 [18]: ≥ 20 µM
- IC50 [19]: ≥ 20 µM
- IC50 [20]: ≥ 20 µM
- IC50 [21]: 7.7 µM
SMILES: COc1ccccc1-c1n[nH]c2nc(N[C@H]3CC[C@H](NS(=O)(=O)CCC(F)(F)F)CC3)nc(OC)c12 [compound 31, 3,3,3-Trifluoro-N-(trans-4-((4-methoxy-3-(2-methoxyphenyl)-1H-pyrazolo[3,4-d]pyrimidin-6-yl)amino)cyclohexyl)propane-1-sulfonamide]

Source: PMC6407917, “Identification of GSK3186899/DDD853651 as a Preclinical Development Candidate for the Treatment of Visceral Leishmaniasis” (Journal of Medicinal Chemistry, 2018)
